Test results published in PubChem BioAssay AID2060499 (Molecular Pharmacology Branch, DTP, NCI, 2025).

System: 777334-354-R2-J4-PDC tumor spheroids with HUVEC/MSC, viability
Experiment: Anticancer human tumor 777334-354-R2-J4-PDC patient-derived pancreatic adenocarcinoma cell line growth inhibition [GQUAD]
Details: for IC50: curve of first compound; for viability, T/C: stronger effect = lower value
Summary of the method: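 Tumor cells were grown as complex spheroids with HUVEC endothelial cells and mesenchymal stem cells as stroma. G-quadruplex stabilizers were combined with targeted agents over half-log dilutions from near the clinical Cmax, or from 10 microM.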

[1] = second compound 0.0316 µM, first compound 0.0316 µM
[2] = second compound 0.0316 µM, first compound 0.1 µM
[3] = second compound 0.0316 µM, first compound 0.316 µM
[4] = second compound 0.0316 µM, first compound 1 µM
[5] = second compound 0.0316 µM, first compound 3.16 µM
[6] = second compound 0.0316 µM, first compound 10 µM
[7] = second compound 0.1 µM, first compound 0.0316 µM
[8] = second compound 0.1 µM, first compound 0.1 µM
[9] = second compound 0.1 µM, first compound 0.316 µM
[10] = second compound 0.1 µM, first compound 1 µM
[11] = second compound 0.1 µM, first compound 3.16 µM
[12] = second compound 0.1 µM, first compound 10 µM
[13] = second compound 0.316 µM, first compound 0.0316 µM
[14] = second compound 0.316 µM, first compound 0.1 µM
[15] = second compound 0.316 µM, first compound 0.316 µM
[16] = second compound 0.316 µM, first compound 1 µM
[17] = second compound 0.316 µM, first compound 3.16 µM
[18] = second compound 0.316 µM, first compound 10 µM
[19] = second compound 1 µM, first compound 0.0316 µM
[20] = second compound 1 µM, first compound 0.1 µM
[21] = second compound 1 µM, first compound 0.316 µM
[22] = second compound 1 µM, first compound 1 µM
[23] = second compound 1 µM, first compound 3.16 µM
[24] = second compound 1 µM, first compound 10 µM
[25] = second compound 3.16 µM, first compound 0.0316 µM
[26] = second compound 3.16 µM, first compound 0.1 µM
[27] = second compound 3.16 µM, first compound 0.316 µM
[28] = second compound 3.16 µM, first compound 1 µM
[29] = second compound 3.16 µM, first compound 3.16 µM
[30] = second compound 3.16 µM, first compound 10 µM
[31] = second compound 10 µM, first compound 0.0316 µM
[32] = second compound 10 µM, first compound 0.1 µM
[33] = second compound 10 µM, first compound 0.316 µM
[34] = second compound 10 µM, first compound 1 µM
[35] = second compound 10 µM, first compound 3.16 µM
[36] = second compound 10 µM, first compound 10 µM
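Note: spheroids exposed to compounds for 7 days before readout.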

Work on CC(C)n1c(=O)n(C)c2cnc3cc(F)c(-c4ccc(OCCCN5CCCCC5)nc4)cc3c21 + Cc1cnc(CNC(=O)c2c(=O)c3ccc(N4CCCN(C)CC4)nc3n3c2sc2ccccc23)cn1 yielded an IC50 (second compound 0.0316 µM) of over 10000 nM, an IC50 (second compound 0.1 µM) of over 10000 nM and an IC50 (second compound 0.316 µM) of over 10000 nM. It also gave an IC50 (second compound 1 µM) of over 10000 nM, an IC50 (second compound 3.16 µM) of over 10000 nM and an IC50 (second compound 10 µM) of over 10000 nM. The viability, T/C [1] was 85.8%, the viability, T/C [2] was 84% and the viability, T/C [3] was 93.9%. It also gave a viability, T/C [4] of 91%, a viability, T/C [5] of 103% and a viability, T/C [6] of 85.6%. For the same molecule, the viability, T/C [7] was 78.3%, the viability, T/C [8] was 74.3% and the viability, T/C [9] was 89.1%. The viability, T/C [10] was 73.6%, the viability, T/C [11] was 74.2% and the viability, T/C [12] was 91.4%. For the same molecule, the viability, T/C [13] was 71.4%, the viability, T/C [14] was 73.2% and the viability, T/C [15] was 73.8%. For the same molecule, the viability, T/C [16] was 84.7%, the viability, T/C [17] was 76% and the viability, T/C [18] was 74.8%. For the same molecule, the viability, T/C [19] was 73.3%, the viability, T/C [20] was 71.6% and the viability, T/C [21] was 66.9%. For the same molecule, the viability, T/C [22] was 72.7%, the viability, T/C [23] was 85.7% and the viability, T/C [24] was 73.7%. The viability, T/C [25] was 57.6%, the viability, T/C [26] was 62.8% and the viability, T/C [27] was 66.5%. It also gave a viability, T/C [28] of 62.1%, a viability, T/C [29] of 78.6% and a viability, T/C [30] of 63.4%. The viability, T/C [31] was 57.4%, the viability, T/C [32] was 52.9% and the viability, T/C [33] was 61.6%. For the same molecule, the viability, T/C [34] was 62%, the viability, T/C [35] was 69% and the viability, T/C [36] was 64.1%.
With CC1COCCN1c1cc(-c2ccnn2C)c2ccnc(-c3ccn[nH]3)c2n1 (stereo unspecified) + Cc1cnc(CNC(=O)c2c(=O)c3ccc(N4CCCN(C)CC4)nc3n3c2sc2ccccc23)cn1 the IC50 (second compound 0.0316 µM) was 143 nM, the IC50 (second compound 0.1 µM) was 240 nM and the IC50 (second compound 0.316 µM) was 331 nM. For the same molecule, the IC50 (second compound 1 µM) was under 31.6 nM, the IC50 (second compound 3.16 µM) was under 31.6 nM and the IC50 (second compound 10 µM) was under 31.6 nM. It also gave a viability, T/C [1] of 73.2%, a viability, T/C [2] of 50.8% and a viability, T/C [3] of 45.5%. For the same molecule, the viability, T/C [4] was 41.7%, the viability, T/C [5] was 43.1% and the viability, T/C [6] was 34.5%. It also gave a viability, T/C [7] of 59.8%, a viability, T/C [8] of 51.3% and a viability, T/C [9] of 47.8%. It also gave a viability, T/C [10] of 41.9%, a viability, T/C [11] of 44.1% and a viability, T/C [12] of 28.7%. For the same molecule, the viability, T/C [13] was 56%, the viability, T/C [14] was 59.3% and the viability, T/C [15] was 48.6%. The viability, T/C [16] was 41.8%, the viability, T/C [17] was 38.6% and the viability, T/C [18] was 26.9%. For the same molecule, the viability, T/C [19] was 48.3%, the viability, T/C [20] was 44.1% and the viability, T/C [21] was 52.8%. It also gave a viability, T/C [22] of 41.8%, a viability, T/C [23] of 36.2% and a viability, T/C [24] of 27.5%. For the same molecule, the viability, T/C [25] was 44.5%, the viability, T/C [26] was 41% and the viability, T/C [27] was 41.7%. For the same molecule, the viability, T/C [28] was 41.3%, the viability, T/C [29] was 29.6% and the viability, T/C [30] was 20%. It also gave a viability, T/C [31] of 42.8%, a viability, T/C [32] of 39.8% and a viability, T/C [33] of 44.7%. For the same molecule, the viability, T/C [34] was 36.9%, the viability, T/C [35] was 32.5% and the viability, T/C [36] was 21.2%.
With CC1COCCN1c1cc(C2(O)CC3CCC(C2)O3)c2cnn(-c3ccn[nH]3)c2n1 (stereo unspecified) + Cc1cnc(CNC(=O)c2c(=O)c3ccc(N4CCCN(C)CC4)nc3n3c2sc2ccccc23)cn1 the IC50 (second compound 0.0316 µM) was 128 nM, the IC50 (second compound 0.1 µM) was 144 nM and the IC50 (second compound 0.316 µM) was 158 nM. For the same molecule, the IC50 (second compound 1 µM) was 130 nM, the IC50 (second compound 3.16 µM) was under 31.6 nM and the IC50 (second compound 10 µM) was under 31.6 nM. The viability, T/C [1] was 62%, the viability, T/C [2] was 46.6% and the viability, T/C [3] was 45.6%. It also gave a viability, T/C [4] of 37.3%, a viability, T/C [5] of 32.6% and a viability, T/C [6] of 21.5%. The viability, T/C [7] was 65.9%, the viability, T/C [8] was 46.5% and the viability, T/C [9] was 46.4%. The viability, T/C [10] was 34.8%, the viability, T/C [11] was 31.9% and the viability, T/C [12] was 18.4%. The viability, T/C [13] was 54.1%, the viability, T/C [14] was 55% and the viability, T/C [15] was 46%. It also gave a viability, T/C [16] of 37.1%, a viability, T/C [17] of 30.6% and a viability, T/C [18] of 16.5%. It also gave a viability, T/C [19] of 59.7%, a viability, T/C [20] of 46.1% and a viability, T/C [21] of 45.6%. It also gave a viability, T/C [22] of 39.7%, a viability, T/C [23] of 26.4% and a viability, T/C [24] of 15%. For the same molecule, the viability, T/C [25] was 40.8%, the viability, T/C [26] was 46.1% and the viability, T/C [27] was 46.3%. It also gave a viability, T/C [28] of 34.2%, a viability, T/C [29] of 21.4% and a viability, T/C [30] of 14.9%. It also gave a viability, T/C [31] of 46.8%, a viability, T/C [32] of 42.8% and a viability, T/C [33] of 39%. It also gave a viability, T/C [34] of 29.6%, a viability, T/C [35] of 18.7% and a viability, T/C [36] of 11.2%.
